Measured values as given in US20120207763A1, “PYRROLOPYRIMIDINE COMPOUNDS AND THEIR USES” (ASTEX THERAPEUTICS LIMITED, priority 2006, published 2012).
pIC50: −log10 of the molar value. Values joined by “and” are separate entries in the source; they are usually repeats but may differ in a detail not shown here. Equal entries are not always repeated.

Assays:
Assay type in all cases: biochemical
[1] = target: CDK2/Cyclin-A kinase complex (Homo sapiens, UniProt P24941); test: CDK2 IMAP fluorescence polarization assay; conditions: Table E; read-out: CDK2cyA IMAP/IC50 [umol l − 1]
How it was run: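 Fluorescence polarization (IMAP) using purified active CDK2/Cyclin-A complex with a TAMRA-tagged Histone H1-derived peptide substrate; phosphorylated peptide bound by a metal-containing reagent raises polarization. Inhibition read as reduced fluorescence polarization signal.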

CDK4 = CDK4 (Homo sapiens, UniProt P11802); test: CDK4 HTRF assay; conditions: Table E; read-out: CDK4 HTRF/IC50 [umol l − 1]
CDK4, sequence (P11802 whole entry): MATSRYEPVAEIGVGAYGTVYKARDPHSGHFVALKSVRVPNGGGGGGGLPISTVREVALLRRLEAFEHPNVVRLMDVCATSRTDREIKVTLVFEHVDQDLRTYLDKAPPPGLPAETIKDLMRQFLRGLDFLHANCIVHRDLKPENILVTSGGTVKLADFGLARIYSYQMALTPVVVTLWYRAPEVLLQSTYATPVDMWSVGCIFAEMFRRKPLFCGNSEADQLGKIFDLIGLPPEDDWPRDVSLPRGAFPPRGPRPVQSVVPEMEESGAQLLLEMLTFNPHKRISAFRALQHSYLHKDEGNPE
CDK4, sequence (P24385 whole entry partner): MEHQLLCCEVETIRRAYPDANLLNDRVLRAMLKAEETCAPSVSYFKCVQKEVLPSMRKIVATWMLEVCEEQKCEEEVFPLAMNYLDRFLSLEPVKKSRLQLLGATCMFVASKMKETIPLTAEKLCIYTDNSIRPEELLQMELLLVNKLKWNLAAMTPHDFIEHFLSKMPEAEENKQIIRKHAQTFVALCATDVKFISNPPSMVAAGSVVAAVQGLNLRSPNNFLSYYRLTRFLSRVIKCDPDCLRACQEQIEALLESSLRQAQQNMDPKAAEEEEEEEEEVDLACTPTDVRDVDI

hCDK1/B = hCDK1/B (Homo sapiens, UniProt P06493); test: hCDK1/B assay; conditions: Table E; read-out: hCDK1/B/IC50 [umol l − 1]
hCDK1/B, sequence (P06493 whole entry): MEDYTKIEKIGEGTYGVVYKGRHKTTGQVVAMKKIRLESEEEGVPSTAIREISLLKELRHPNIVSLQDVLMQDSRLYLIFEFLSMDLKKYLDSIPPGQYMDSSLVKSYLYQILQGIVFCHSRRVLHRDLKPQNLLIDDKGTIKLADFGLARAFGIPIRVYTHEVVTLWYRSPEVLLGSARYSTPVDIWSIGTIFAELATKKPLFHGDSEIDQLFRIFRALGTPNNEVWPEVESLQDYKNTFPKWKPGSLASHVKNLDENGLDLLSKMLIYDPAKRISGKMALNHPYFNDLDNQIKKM
hCDK1/B, sequence (P14635 whole entry partner): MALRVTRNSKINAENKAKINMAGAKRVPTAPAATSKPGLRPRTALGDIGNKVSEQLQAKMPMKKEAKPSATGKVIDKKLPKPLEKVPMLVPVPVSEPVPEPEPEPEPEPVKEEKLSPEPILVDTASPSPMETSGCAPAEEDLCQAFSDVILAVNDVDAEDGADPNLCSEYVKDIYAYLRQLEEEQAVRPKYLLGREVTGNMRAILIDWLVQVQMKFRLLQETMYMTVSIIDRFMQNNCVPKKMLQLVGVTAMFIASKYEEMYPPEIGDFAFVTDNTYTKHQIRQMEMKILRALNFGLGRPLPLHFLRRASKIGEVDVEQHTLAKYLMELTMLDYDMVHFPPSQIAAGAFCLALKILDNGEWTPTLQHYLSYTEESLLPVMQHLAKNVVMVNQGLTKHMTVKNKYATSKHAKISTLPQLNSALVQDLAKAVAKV

pIC50 [1]	pIC50 (CDK4)	pIC50 (hCDK1/B)	SMILES
> 5.00	> 6.00	> 5.00	Cc1cn(C2CCCC2)c2nc(Nc3ccc(CN4CCOCC4)cc3)ncc12 [Example 313]
> 6.00	> 6.00	> 6.00	Cc1c(-c2cnco2)n(C2CCCCCC2)c2nc(Nc3ccc(N4CCNCC4)cn3)ncc12 [Example 400]
> 5.00	> 6.00	> 5.00	Cc1c(C#N)n(C2CCCC2)c2nc(Nc3ccc(N4CCNCC4)cn3)ncc12 [Example 393]
> 6.00	> 6.00	> 5.00	Cc1cn(C2CCC(O)C2)c2nc(Nc3ccc(CN4CCOCC4)cc3)ncc12 (centres unmarked) [Example 315]
> 5.00	> 6.00	> 5.00	Cc1cn(C2CCCC2)c2nc(Nc3ccc(CN4CCNCC4)cc3)ncc12 [Example 314]
< 5.00	> 6.00	> 5.00	Cc1cn(C2CCCC2)c2nc(Nc3ccc(CCN4CCOCC4)cc3)ncc12 [Example 291]
< 5.00	> 6.00	> 5.00	CCC(CC)n1c(C(=O)Nc2cccnc2)cc2cnc(Nc3ccc(N4CCNCC4)cc3)nc21 [Example 352]
> 5.00	> 6.00	> 5.00	CC(=O)N1CCN(c2ccc(Nc3ncc4ccn(C5CCC(C)C5)c4n3)cc2)CC1 (centres unmarked) [Example 238]
> 5.00	> 6.00	> 5.00	CCC(CC)n1c(C(=O)Nc2ccccn2)cc2cnc(Nc3ccc(N4CCNCC4)cc3)nc21 [Example 351]
< 5.00	> 6.00	< 5.00	CN(C)C(=O)c1cc2cnc(Nc3ccc(CN4CCNCC4)cc3)nc2n1C1CCCC1 [Example 339]
< 5.00	> 6.00	< 5.00	CCC(CC)n1c(C(=O)Nc2ccc(OC)cc2)cc2cnc(Nc3ccc(N4CCNCC4)cc3)nc21 [Example 347]
> 5.00	–	> 5.00	CCC(CC)n1c(CNCc2ccco2)cc2cnc(Nc3ccc(N4CCN(C(C)=O)CC4)cc3)nc21 [Example 449]
> 5.00	–	> 5.00	CCC(CC)n1c(CNc2cccnc2)cc2cnc(Nc3ccc(N4CCN(C(C)=O)CC4)cc3)nc21 [Example 369]

Further lines, the compound ahead of its results:

SMILES	pIC50 [1]	pIC50 (CDK4)	pIC50 (hCDK1/B)
CN(C)C(=O)c1cc2cnc(Nc3ccc(CN4CCOCC4)cc3)nc2n1C1CCCC1 [Example 340]	> 5.00	> 6.00	> 5.00
Cc1c(-c2cnco2)n(C2CCCC2)c2nc(Nc3ccc(CN4CCOCC4)cc3)ncc12 [Example 401]	> 6.00	> 6.00	> 6.00
CCC(CC)n1c(C(=O)N(C)C)cc2cnc(Nc3ccc(CN4CCN(C(=O)OC(C)(C)C)CC4)cc3)nc21 [Example 465]	> 5.00	> 6.00	> 5.00
CCC(CC)n1c(C(=O)Nc2ccc(C(F)(F)F)cc2)cc2cnc(Nc3ccc(N4CCNCC4)cc3)nc21 [Example 359]	> 5.00	> 6.00	> 5.00
Cc1cn(C2CCCC2)c2nc(Nc3ccc(CN4CCNC(=O)C4)cc3)ncc12 [Example 290]	> 5.00	> 6.00	> 5.00
Cc1cn(C2CCCC2)c2nc(Nc3ccncn3)ncc12 [Example 304]	< 5.00	< 5.00	< 5.00
CCC(CC)n1c(C(=O)Nc2cccc(F)c2)cc2cnc(Nc3ccc(N4CCNCC4)cc3)nc21 [Example 357]	> 5.00	> 6.00	> 5.00
Cc1c(C#N)n(C2CCCC2)c2nc(Nc3ccc(N4CCC(N(C)C)CC4)cc3)ncc12 [Example 395]	> 6.00	> 6.00	> 6.00
CCC(CC)n1c(C(=O)NC)cc2cnc(Nc3ccc(N4CCNCC4)cc3)nc21 [Example 346]	> 5.00	> 6.00	> 5.00
Cc1cn(C2CCCC2)c2nc(Nc3ccccc3)ncc12 [Example 277]	< 5.00	< 5.00	< 5.00
CCN(CC)c1ccc(Nc2ncc3c(C)cn(C4CCCC4)c3n2)cc1 [Example 457]	< 5.00	< 5.00	< 5.00
CCC(CC)n1c(CNCCc2cc3ccccc3[nH]2)cc2cnc(Nc3ccc(N4CCN(C(C)=O)CC4)cc3)nc21 [Example 368]	> 6.00	> 6.00	> 5.00
Cc1c(-c2cnco2)n(C2CCCC2)c2nc(Nc3ccc(N4CCNCC4)cc3)ncc12 [Example 398]	> 6.00	> 6.00	> 6.00
OC1CCC(n2ccc3cnc(Nc4ccc(N5CCNCC5)cc4)nc32)C1 (centres unmarked) [Example 247]	> 6.00	> 6.00	> 6.00
CCC(CC)n1c(C(=O)Nc2cccc(C(C)(C)C)c2)cc2cnc(Nc3ccc(N4CCNCC4)cc3)nc21 [Example 358]	< 4.82	> 6.00	< 4.82
Cc1cn(-c2c[nH]cn2)c2nc(Nc3ccc(N4CCNCC4)cn3)ncc12 [Example 324]	< 5.00	> 6.00	< 5.00
Cc1nnc(-c2c(C)c3cnc(Nc4ccc(N5CCNCC5)cn4)nc3n2C2CCCC2)o1 [Example 386, [7-Cyclopentyl-5-methyl-6-(5-methyl-[1,3,4]oxadiazol-2-yl)-7H-pyrrolo[2,3d]pyrimidin-2-yl]-(5-piperazin-1-yl-pyridin-2-yl)-amine]	> 5.00	> 6.00	> 5.00
CC(=O)c1c(C)c2cnc(Nc3ccc(N4CCNCC4)cn3)nc2n1C1CCCCCC1 [Example 389]	> 5.00	> 6.00	< 5.00
Cc1c(C#N)n(C2CCCC2)c2nc(Nc3ccc(N4CCC(N(C)C)CC4)cn3)ncc12 [Example 394]	< 5.00	> 6.00	< 4.82
Cc1cn(C2CCCC2)c2nc(Nc3ccc(N4CCOCC4)cc3)ncc12 [Example 305]	> 5.00	< 5.00	> 5.00
CN(C)C(=O)c1cc2cnc(Nc3ccc(N4CCNCC4)cc3)nc2n1C1CCCC1 [Example 338]	> 5.00	> 6.00	> 5.00
CN(C)C(=O)c1cc2cnc(Nc3ccc(C4CCNCC4)cc3)nc2n1C1CCCC1 [Example 341]	< 5.00	> 6.00	> 5.00
CCC(CC)n1c(C(=O)N(C)C)cc2cnc(Nc3ccc(CN4CCNCC4)cc3)nc21 [Example 342]	> 5.00	> 6.00	> 5.00
Cc1n[nH]c(-c2c(C)c3cnc(Nc4ccc(N5CCNCC5)cn4)nc3n2C2CCCC2)n1 [Example 406]	< 5.00	> 6.00	< 5.00
CCC(CC)n1c(C(=O)Nc2ccncc2)cc2cnc(Nc3ccc(N4CCNCC4)cc3)nc21 [Example 353]	< 4.82	> 6.00	< 4.82
Cc1cn(C2CCCC2)c2nc(Nc3ccc(N4CCCCC4)nc3)ncc12 [Example 284]	< 4.82	< 5.00	< 4.82
CCC(C)n1c(C#N)c(C)c2cnc(Nc3ccc(N4CCC(N(C)C)CC4)cc3)nc21 (centres unmarked) [Example 396]	> 6.00	> 6.00	> 6.00
c1cc(N2CCNCC2)ccc1Nc1ncc2ccn(C3CCCCCC3)c2n1 [Example 232]	–	< 5.00 and > 6.00	< 5.00
Cc1cn(C2CCCC2)c2nc(Nc3ccc(N4CCNCC4)cc3)ncc12 [Example 266]	–	> 6.00	> 5.00
